# Assays:
# Aj (Aneiliema japonica) = assay: Example 1 field test, weed control in transplanted rice, Iri, Korea; format: in vivo; details: av. of 36 and 63 DAT
# Description: (§1) In the field test 48 day-old seedlings (Watanabe variety) were transplanted to plots 2.5 × 6 m. seeded with the weed seeds indicated in Table 1. At 5 and 10 DAT periods, the herbicides were applied to the plants (now at the 1.2 and 2.0 leaf stage, respectively, of grass weed) at the indicated rate in kilograms per hectare (kg/ha). The weed control and rice injury results for 3 replications are reported in percentages as of the indicated times of observation. The percentages given in the "Perennials" column are based on the weight of the weeds at 63 DAT, i.e., 42 gms/3.6 m^2 for the weedy check.
# Ci (Cyperus iria) = assay: as above; format: in vivo; details: av. of 36 and 63 DAT
# Description: as §1
# [1] = system: Eo (Echinochloa oryzicola); assay: as above; format: in vivo; details: av. of 36 and 63 DAT
# Description: as §1
# [2] = system: Mv (Monochoria vaginalis); assay: as above; format: in vivo; details: av. of 36 and 63 DAT
# Description: as §1
# transplanted rice = assay: Example 1 field test, rice yield; format: in vivo, rice (Watanabe variety)
# Description: as §1
# Echinochloa crusgalli = assay: Example 2 field test, weed control, Chia Yi, Taiwan; format: in vivo; details: obs. 63 DAT
# Method: In the field tests of the herbicide of this invention with transplanted rice, the rice seedlings were grown in conventional manner, by seeding the rice in a typical seedbed of sandy loam to clay soil of the country wherein the test was conducted. For laboratory and greenhouse work the seedlings were obtained by seeding rice in a mixture of soil, e.g., Ray silt loam, and peat in wood flats. For purposes of testing the herbicides on younger rice seedlings (infant or Dapog) the rice was usually allowed to grow for 6-15 days before lifting for transplanting. Older (ordinary) rice plants were usually grown for a period of about 2-3 weeks, or as much as about 7 weeks before lifting. Since the period of growth is dependent upon climatic conditions, a better measure of when to transplant the rice seedling is the leaf stage of growth; for infant or Dapog rice the seedling is lifted at the 1.5-2 leaf stage of growth, and for ordinary seedlings at the 2.5-5 leaf stage. The seedlings were then transplanted to the test plots for evaluation of the herbicide for injury against weed species present with the transplanted rice. The herbicides were then applied to the growth medium of the weeds and transplant rice, either preemergent or postemergent with respect to the weeds and postemergent with respect to the transplanted rice. […] Application rates given in the tables refer to the amount of active ingredient used.
# Rice seedlings (ordinary) of Tainan No. 5 variety (japonica) were transplanted at 19 days of growth. Granular formulations of Herbicides A and B were applied at the 1 leaf stage of grass weed (4 DAT) and 2.5 leaf stage of grass weed (10 DAT).
# [3] = system: Broadleaf: Mv, Sz (Monochoria vaginalis, Sphenoclea zeylanica); assay: Example 3 field test on Dapog rice, weed control, Munoz, Philippines; format: in vivo, Monochoria vaginalis and Sphenoclea zeylanica; details: obs. 42 DAT
# Description: Treatments were replicated four times.
# Dapog transplanted rice = assay: Example 3 field test, rice yield; format: in vivo
# Method: (§2) In the tests described in the tables below, the herbicides were formulated and used in granular form in conventional manner. […] The commercial herbicide used was a granular product having 5% active ingredient.
# (§3) In the field tests of the herbicide of this invention with transplanted rice, the rice seedlings were grown in conventional manner, by seeding the rice in a typical seedbed of sandy loam to clay soil of the country wherein the test was conducted. For laboratory and greenhouse work the seedlings were obtained by seeding rice in a mixture of soil, e.g., Ray silt loam, and peat in wood flats. For purposes of testing the herbicides on younger rice seedlings (infant or Dapog) the rice was usually allowed to grow for 6-15 days before lifting for transplanting. Older (ordinary) rice plants were usually grown for a period of about 2-3 weeks, or as much as about 7 weeks before lifting. Since the period of growth is dependent upon climatic conditions, a better measure of when to transplant the rice seedling is the leaf stage of growth; for infant or Dapog rice the seedling is lifted at the 1.5-2 leaf stage of growth, and for ordinary seedlings at the 2.5-5 leaf stage. The seedlings were then transplanted to the test plots for evaluation of the herbicide for injury against weed species present with the transplanted rice. The herbicides were then applied to the growth medium of the weeds and transplant rice, either preemergent or postemergent with respect to the weeds and postemergent with respect to the transplanted rice. Application times are designated in the tables as "DAT", meaning "days after transplant". Application rates given in the tables refer to the amount of active ingredient used.
# Eleven (11) day-old Dapog seedlings were transplanted and treated at 5 DAT and 14 DAT with Herbicides A and B. The plots were overseeded with Echinochloa crusgalli seeds at 2 kgs/ha prior to transplanting. Treatments were replicated four times.
# [4] = system: Obw (other broadleaf weeds); assay: Example 5 field test, weed control, JAAPR, Japan; format: in vivo; details: 1.5 kg/ha, 7 DAT
# [5] = system: Ea (Eleocharis acicularis); assay: Example 5 field test, weed control, JAAPR, Japan; format: in vivo; details: 1.5 kg/ha, 7 DAT
# [6] = system: transplanted rice (ordinary and infant seedlings); assay: Example 5 field test, rice injury; details: 1.5 kg/ha, 7 DAT
# Method: as §2, §3
# The rice seedlings were grown to the 1.7 leaf stage for infant seedlings and to the 5.5 leaf stage for ordinary seedlings. Two days after puddling the soil in which the seedlings were to be transplanted, both infant and ordinary seedlings were transplanted into plots 8.5 m^2.
# The weed symbol "Obw" represents "other broadleaf weeds" of unspecified identity. Results presented in Table 5 represent the average of 2 replications.
structure (smiles),measurement,setting,value
"CCCCOCN(C(=O)CCl)c1c(CC)cccc1CC [Herbicide B, n-(butoxymethyl)-2',6'-diethyl-2-chloroacetanilide, reference compound]",% Weed Control (Aj),"Aj (Aneiliema japonica); 5 DAT, 1.0 kg/ha",79%
same,% Weed Control (Aj),"Aj (Aneiliema japonica); 5 DAT, 1.5 kg/ha",76%
same,% Weed Control (Aj),"Aj (Aneiliema japonica); 5 DAT, 3.0 kg/ha",85%
same,% Weed Control (Aj),"Aj (Aneiliema japonica); 10 DAT, 1.0 kg/ha",58%
same,% Weed Control (Aj),"Aj (Aneiliema japonica); 10 DAT, 1.5 kg/ha",77%
same,% Weed Control (Aj),"Aj (Aneiliema japonica); 10 DAT, 3.0 kg/ha",78%
same,% Weed Control (Ci),"Ci (Cyperus iria); 5 DAT, 1.0 kg/ha",98%
same,% Weed Control (Ci),"Ci (Cyperus iria); 5 DAT, 1.5 kg/ha",97%
same,% Weed Control (Ci),"Ci (Cyperus iria); 5 DAT, 3.0 kg/ha",99%
same,% Weed Control (Ci),"Ci (Cyperus iria); 10 DAT, 1.0 kg/ha",54%
same,% Weed Control (Ci),"Ci (Cyperus iria); 10 DAT, 1.5 kg/ha",100%
same,% Weed Control (Ci),"Ci (Cyperus iria); 10 DAT, 3.0 kg/ha",93%
same,% Weed Control (Eo),"[1]; 5 DAT, 1.0 kg/ha",64%
same,% Weed Control (Eo),"[1]; 5 DAT, 1.5 kg/ha",89%
same,% Weed Control (Eo),"[1]; 5 DAT, 3.0 kg/ha",92%
same,% Weed Control (Eo),"[1]; 10 DAT, 1.0 kg/ha",68%
same,% Weed Control (Eo),"[1]; 10 DAT, 1.5 kg/ha",83%
same,% Weed Control (Eo),"[1]; 10 DAT, 3.0 kg/ha",77%
same,% Weed Control (Mv),"[2]; 5 DAT, 1.0 kg/ha",43%
same,% Weed Control (Mv),"[2]; 5 DAT, 1.5 kg/ha",55%
same,% Weed Control (Mv),"[2]; 5 DAT, 3.0 kg/ha",70%
same,% Weed Control (Mv),"[2]; 10 DAT, 1.0 kg/ha",58%
same,% Weed Control (Mv),"[2]; 10 DAT, 1.5 kg/ha",75%
same,% Weed Control (Mv),"[2]; 10 DAT, 3.0 kg/ha",69%
same,yield depression,transplanted rice; 1.0 kg/ha,significant yield depression
same,Yield (% of Hand-weeded Check),"transplanted rice; 5 DAT, 1.0 kg/ha",95%
same,Yield (% of Hand-weeded Check),"transplanted rice; 5 DAT, 1.5 kg/ha",100%
same,Yield (% of Hand-weeded Check),"transplanted rice; 5 DAT, 3.0 kg/ha",99%
same,Yield (% of Hand-weeded Check),"transplanted rice; 10 DAT, 1.0 kg/ha",95%
same,Yield (% of Hand-weeded Check),"transplanted rice; 10 DAT, 1.5 kg/ha",97%
same,Yield (% of Hand-weeded Check),"transplanted rice; 10 DAT, 3.0 kg/ha",100%
same,% Weed Control (Echinochloa crusgalli),"Echinochloa crusgalli; 4 DAT, 1.0 kg/ha",65%
same,% Weed Control (Echinochloa crusgalli),"Echinochloa crusgalli; 4 DAT, 1.5 kg/ha",92%
same,% Weed Control (Echinochloa crusgalli),"Echinochloa crusgalli; 4 DAT, 3.0 kg/ha",97%
same,% Weed Control (Echinochloa crusgalli),"Echinochloa crusgalli; 10 DAT, 1.0 kg/ha",77%
same,% Weed Control (Echinochloa crusgalli),"Echinochloa crusgalli; 10 DAT, 1.5 kg/ha",78%
same,% Weed Control (Echinochloa crusgalli),"Echinochloa crusgalli; 10 DAT, 3.0 kg/ha",98%
same,"% Weed control, Broadleaf (Mv,Sz)","[3]; 5 DAT, 1.0 kg/ha",100%
same,"% Weed control, Broadleaf (Mv,Sz)","[3]; 5 DAT, 1.5 kg/ha",100%
same,"% Weed control, Broadleaf (Mv,Sz)","[3]; 5 DAT, 3.0 kg/ha",100%
same,"% Weed control, Broadleaf (Mv,Sz)","[3]; 14 DAT, 1.0 kg/ha",0%
same,"% Weed control, Broadleaf (Mv,Sz)","[3]; 14 DAT, 1.5 kg/ha",0%
same,"% Weed control, Broadleaf (Mv,Sz)","[3]; 14 DAT, 3.0 kg/ha",70%
same,yield vs control,"Dapog transplanted rice; 1 kg/ha, 5 DAT",significantly higher than the control
same,Yield (% of H.W. Check),"Dapog transplanted rice; 5 DAT, 1.0 kg/ha",142%
same,Yield (% of H.W. Check),"Dapog transplanted rice; 5 DAT, 1.5 kg/ha",107%
same,Yield (% of H.W. Check),"Dapog transplanted rice; 5 DAT, 3.0 kg/ha",101%
same,Yield (% of H.W. Check),"Dapog transplanted rice; 14 DAT, 1.0 kg/ha",83%
same,Yield (% of H.W. Check),"Dapog transplanted rice; 14 DAT, 1.5 kg/ha",89%
same,Yield (% of H.W. Check),"Dapog transplanted rice; 14 DAT, 3.0 kg/ha",93%
same,control of Obw in words,[4],complete control
same,% Weed Control (Obw),[4]; infant seedlings,100%
same,% Weed Control (Obw),[4]; ordinary seedlings,71%
same,control of Ea in words,[5],complete control
same,% Weed Control (Ea),[5]; infant seedlings,100%
same,% Weed Control (Ea),[5]; ordinary seedlings,93%
same,Injury,[6]; infant seedlings,10
same,Injury,[6]; ordinary seedlings,5

# Reference: patent US3955959A, “Herbicide for use in transplanted rice” (priority 1974, dated 1976)
